IC50 and Ki data for ten compounds are collected here from ChEMBL document CHEMBL4354850, “The Other Angiotensin II Receptor: AT2R as a Therapeutic Target” (J Med Chem, 2020).

Where a SMILES comes first, the peptide text is derived from it.

The target of assay [1] is T1, Type-1 angiotensin II receptor A (Rattus norvegicus, UniProt P25095).
T1 sequence (P25095 whole entry): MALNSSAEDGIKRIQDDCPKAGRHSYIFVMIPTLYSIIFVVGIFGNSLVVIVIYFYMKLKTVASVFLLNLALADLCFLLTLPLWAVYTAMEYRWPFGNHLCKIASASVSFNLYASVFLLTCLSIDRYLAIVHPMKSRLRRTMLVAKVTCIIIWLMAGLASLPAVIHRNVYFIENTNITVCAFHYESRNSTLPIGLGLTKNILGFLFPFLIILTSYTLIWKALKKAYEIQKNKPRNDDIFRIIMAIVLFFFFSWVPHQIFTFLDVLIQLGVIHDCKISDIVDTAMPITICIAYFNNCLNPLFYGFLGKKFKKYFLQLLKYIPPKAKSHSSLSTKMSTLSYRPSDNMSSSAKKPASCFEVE
The experiment in a line: Inhibition of rat AT1 receptor.

Assay [2] deals with T2, Type-2 angiotensin II receptor (Rattus norvegicus, UniProt P35351).
T2 sequence (P35351 whole entry): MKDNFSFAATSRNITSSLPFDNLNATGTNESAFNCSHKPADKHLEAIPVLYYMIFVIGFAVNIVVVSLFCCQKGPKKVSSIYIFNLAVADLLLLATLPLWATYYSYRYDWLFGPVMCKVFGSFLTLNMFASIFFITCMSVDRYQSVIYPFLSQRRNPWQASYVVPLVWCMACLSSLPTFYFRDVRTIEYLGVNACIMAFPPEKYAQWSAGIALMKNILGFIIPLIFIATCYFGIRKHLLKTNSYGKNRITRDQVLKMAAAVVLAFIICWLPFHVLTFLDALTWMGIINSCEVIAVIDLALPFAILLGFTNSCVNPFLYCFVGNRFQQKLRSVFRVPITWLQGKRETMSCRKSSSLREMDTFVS
Nature of the assay: Inhibition of rat AT2 receptor.

Assay [3] addresses T1, Type-1 angiotensin II receptor A. Nature of the assay: Displacement of [125I]Ang II from AT1 receptor in rat liver membranes. In kind it is cell membranes.
Assay [4] can be described thus: Displacement of [125I]Ang II from AT2 receptor in pig uterus membranes. In kind it is cell membranes, Sus scrofa.
In assay [5] the target is T3, Type-1 angiotensin II receptor (Homo sapiens, UniProt P30556).
T3 sequence (P30556 whole entry): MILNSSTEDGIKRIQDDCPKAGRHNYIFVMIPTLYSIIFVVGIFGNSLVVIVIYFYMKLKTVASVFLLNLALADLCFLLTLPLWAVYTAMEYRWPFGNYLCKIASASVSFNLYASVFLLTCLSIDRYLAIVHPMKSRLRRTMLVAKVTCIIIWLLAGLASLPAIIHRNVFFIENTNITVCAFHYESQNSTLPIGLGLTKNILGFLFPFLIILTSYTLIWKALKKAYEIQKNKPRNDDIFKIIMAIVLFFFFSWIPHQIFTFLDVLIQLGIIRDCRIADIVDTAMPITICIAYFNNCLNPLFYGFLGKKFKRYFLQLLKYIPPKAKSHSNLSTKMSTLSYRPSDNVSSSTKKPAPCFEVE
The experiment in a line: Inhibition of human AT1 receptor.

Assay [6] concerns the target T4, Proto-oncogene Mas (Homo sapiens, UniProt P04201).
T4 sequence (P04201 whole entry): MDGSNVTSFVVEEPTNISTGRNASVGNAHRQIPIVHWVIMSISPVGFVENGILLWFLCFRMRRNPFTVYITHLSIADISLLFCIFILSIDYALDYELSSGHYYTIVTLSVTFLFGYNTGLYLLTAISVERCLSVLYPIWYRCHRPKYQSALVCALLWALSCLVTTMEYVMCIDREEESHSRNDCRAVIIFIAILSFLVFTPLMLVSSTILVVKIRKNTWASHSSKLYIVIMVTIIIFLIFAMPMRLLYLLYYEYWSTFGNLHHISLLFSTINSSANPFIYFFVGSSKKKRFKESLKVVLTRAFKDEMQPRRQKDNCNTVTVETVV
Nature of the assay: Agonist activity at N-terminal c-Myc tagged human MasR expressed in HEK293T cells assessed as reduction in forskolin-induced cAMP accumulation. In kind it is functional, cell-based.

Assay [7] concerns the target T4, Proto-oncogene Mas. The experiment in a line: Antagonist activity at N-terminal c-Myc tagged human MasR expressed in HEK293T cells by cAMP accumulation based assay. The class given is functional, cell-based.
In assay [8] the target is T1, Type-1 angiotensin II receptor A. The experiment in a line: Displacement of [125I]Ang II from AT1 receptor in rat SMC membranes incubated for 60 mins by gamma counting method. In kind it is cell membranes.

With `COc1ccc2c(c1OCc1ccccc1)CC(C(=O)O)N(C(=O)C(c1ccccc1)c1ccccc1)C2` (stereo not drawn), the IC50 in assay [1] worked out at 2900 µM; in assay [2], 0.0752 µM.
In the case of `CCCCOC(=O)NS(=O)(=O)c1sc(CC(C)C)cc1-c1ccc(Cn2c(CC)nc3c(C)cc(C)nc32)cc1`, the results for the Ki in assay [3] and in assay [4] were 0.0039 µM and 0.0028 µM, respectively.
Consider `CCCCOC(=O)NS(=O)(=O)c1ccc(Cc2cccc(OC)c2)cc1-c1ccc(Cn2c(CC)nc3c(C)cc(C)nc32)cc1`, for which the figures for the IC50 in assay [3] and in assay [4] were 0.0014 µM and 0.101 µM, respectively.
In turn, `Cc1cc(Cn2cnc3c2C[C@@H](C(=O)O)N(C(=O)C(c2ccccc2)c2ccccc2)C3)ccc1N(C)C` came in with an inhibition constant Ki in assay [5] of 0.012 µM.
`CCNC(=O)NS(=O)(=O)c1sc(CC(C)C)cc1-c1ccc(Cn2c(-c3ccccc3)nc(OC)c2C=O)cc1`: the IC50 in assay [6] stood at 0.021 µM.
As to `COc1ccc2c(c1OCc1ccccc1)C[C@H](C(=O)O)N(C(=O)C(c1ccccc1)c1ccccc1)C2`, in assay [5], inhibition was half-maximal at 1.1 µM (IC50).
For `CC[C@H](C)[C@H](NC(=O)[C@H](Cc1ccc(O)cc1)NC(=O)[C@@H](NC(=O)[C@H](CCCNC(=N)N)NC(=O)[C@@H](N)CC(=O)O)C(C)C)C(=O)N[C@@H](Cc1cnc[nH]1)C(=O)N[C@H](C)C(=O)O` (HELM PEPTIDE1{D.R.V.Y.I.H.[dA]}$$$$V2.0), in assay [7], the IC50 worked out at 0.0003 µM.
On to `CC[C@H](C)[C@H](NC(=O)[C@@H]1CCCN1C(=O)[C@H](Cc1c[nH]cn1)NC(=O)[C@H](CCCCNC(=O)[C@H](CCCN=C(N)N)NC(=O)OCc1ccccc1)NC(=O)[C@H](Cc1ccc(O)cc1)NC(=O)c1cccnc1)C(=O)O` (HELM PEPTIDE1{[O=C(c1cccnc1)[*:2]].Y.K.H.P.I}|PEPTIDE2{[O=C(OCc1ccccc1)[*:2]].R}$PEPTIDE1,PEPTIDE2,3:R3-2:R2$$$V2.0), for which, in assay [8], the Ki is 1.7 µM.
`CCCCOC(=O)NS(=O)(=O)c1sc(CC(C)C)cc1-c1ccc(Cn2ccnc2)cc1` [BULOXIBUTID] registered a Ki in assay [3] of over 10 µM.
Consider `COc1ccc2c(c1OCc1ccccc1)C[C@@H](C(=O)O)N(C(=O)C(c1ccccc1)c1ccccc1)C2` [OLODANRIGAN], for which the midpoint of inhibition in assay [5], the IC50, lay at 0.039 µM.
